Test results reported in ChEMBL document CHEMBL1148158, “Antineoplastic Agents. 510. Isolation and structure of dolastatin 19 from the Gulf of California sea hare Dolabella auricularia” (2004).
≈ marks a conversion by molar mass, not a printed value.

How the values were obtained:
[1] = system: MCF7; assay: Growth inhibition of human MCF7 cells; type: functional
[2] = system: KM-20L2; assay: Growth inhibition of human KM20L2 cells; type: functional

GI50 [1]: 0.72 mg/L (≈ 1.14 µM)
Compound: CO[C@@H]1[C@@H](O)[C@@H](OC)[C@H](O[C@@H]2C[C@]3(O)O[C@H](C[C@H](OC)/C=C(\C)C[C@@H](/C=C/C=C/Br)OC(=O)[C@H]3C)[C@H]2C)O[C@H]1C [DOLASTATIN 19]
GI50 [2]: 0.76 mg/L (≈ 1.2 µM)
